# Assay results published in the supplement of paper PMC9663587.
# Experiments:
# [1] = compound: T1, CN(C)C(=O)c1cc2cnc(Nc3ccc(N4CCNCC4)cn3)nc2n1C1CCCC1 [LEE011/Ribociclib]; assay: increase in dead-cell fraction, 72 h; higher = more death;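 also: breast cancer cell lines in 384-well plates, stained with Hoechst plus LIVE/DEAD far red dye and imaged, cells above an LDR intensity threshold counted dead, Hoechst-negative corpses included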
# [2] = compound: CN1CC[C@H](c2c(O)cc(O)c3c(=O)cc(-c4ccccc4Cl)oc23)[C@H](O)C1 [Flavopiridol]; assay: as above
# [3] = compound: C=CC(=O)Nc1ccc(C(=O)Nc2[nH]nc3c2CN(C(=O)N[C@H](CN(C)C)c2ccccc2)C3(C)C)cc1 [YKL-5-124]; assay: as above
# [4] = compound: CC(=O)c1c(C)c2cnc(Nc3ccc(N4CCN(CCOCCOCCOCCNC(=O)COc5cccc6c5C(=O)N(C5CCC(=O)NC5=O)C6=O)CC4)cn3)nc2n(C2CCCC2)c1=O [BSJ-03-123]; assay: as above
# [5] = compound: CN(C)C/C=C/C(=O)Nc1ccc(C(=O)N2CCC[C@@H](Nc3ncc(Cl)c(-c4c[nH]c5ccccc45)n3)C2)cc1 [THZ531]; assay: as above
# [6] = compound: CCc1cnn2c(NCc3ccc[n+]([O-])c3)cc(N3CCCC[C@H]3CCO)nc12; assay: as above
# [7] = compound: CCN1CCN(Cc2ccc(Nc3ncc(F)c(-c4cc(F)c5nc(C)n(C(C)C)c5c4)n3)nc2)CC1; assay: as above
# [8] = compound: CC(=O)c1c(C)c2cnc(Nc3ccc(N4CCNCC4)cn3)nc2n(C2CCCC2)c1=O; assay: as above
# [9] = compound: CN(C)C/C=C/C(=O)Nc1ccc(C(=O)Nc2cccc(Nc3ncc(Cl)c(-c4c[nH]c5ccccc45)n3)c2)cc1 [THZ1]; assay: as above
# [10] = compound: CCOc1cc2ncc(C#N)c(Nc3ccc(OCc4ccccn4)c(Cl)c3)c2cc1NC(=O)/C=C/CN(C)C [Neratinib/HKI272]; assay: as above
# [11] = compound: T1, LEE011/Ribociclib
# [12] = compound: COc1cccc2c1C(=O)c1c(O)c3c(c(O)c1C2=O)C[C@@](O)(C(=O)CO)C[C@@H]3O[C@H]1C[C@H](N)[C@H](O)[C@H](C)O1 [Doxorubicin]
# [13] = compound: Cc1cc(Nc2ncc(Cl)c(Nc3ccccc3S(=O)(=O)C(C)C)n2)c(OC(C)C)cc1C1CCNCC1 [Ceritinib/LDK378]
# [14] = compound: Cc1nn(C)c(COc2ccc(N3CCN(S(=O)(=O)N(C)C)CC3)cc2)c1-c1cccc2c(CCCOc3cccc4ccccc34)c(C(=O)O)n(CCN3CCOCC3)c12
# [15] = compound: CCc1cnn2c(NCc3ccc[n+]([O-])c3)cc(N3CCCC[C@H]3CCO)nc12
# [16] = compound: CS(=O)(=O)N1CCN(Cc2cc3nc(-c4cccc5[nH]ncc45)nc(N4CCOCC4)c3s2)CC1 [Pictilisib/GDC0941]
# 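For GR50, 72 h in this document: breast cancer and non-malignant breast epithelial cell lines, Deep Dye Drop or Dye Drop imaging, nine half-log doses, GR normalized to time-zero plates and DMSO-only controls.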
cell line,measurement,setting,value
CAL51,increase in dead-cell fraction,[1]; 0.001 µM,-0.0032
same,increase in dead-cell fraction,[1]; 0.003162 µM,-0.0038
same,increase in dead-cell fraction,[1]; 0.01 µM,-0.0003
same,increase in dead-cell fraction,[1]; 0.03162 µM,0.0052
same,increase in dead-cell fraction,[1]; 0.1 µM,0.0083
same,increase in dead-cell fraction,[1]; 0.3162 µM,0.0065
same,increase in dead-cell fraction,[1]; 1 µM,0.0053
same,increase in dead-cell fraction,[1]; 3.162 µM,0.0086
same,increase in dead-cell fraction,[1]; 10 µM,0.0229
same,increase in dead-cell fraction,[2]; 0.0001 µM,-0.0023
same,increase in dead-cell fraction,[2]; 0.0003162 µM,0.0009
same,increase in dead-cell fraction,[2]; 0.001 µM,-0.0005
same,increase in dead-cell fraction,[2]; 0.003162 µM,0.004
same,increase in dead-cell fraction,[2]; 0.01 µM,0.0023
same,increase in dead-cell fraction,[2]; 0.03162 µM,0.006
same,increase in dead-cell fraction,[2]; 0.1 µM,0.011
same,increase in dead-cell fraction,[2]; 0.3162 µM,0.068
same,increase in dead-cell fraction,[2]; 1 µM,0.234
same,increase in dead-cell fraction,[3]; 0.001 µM,0.0123
same,increase in dead-cell fraction,[3]; 0.003162 µM,0.0229
same,increase in dead-cell fraction,[3]; 0.01 µM,0.0534
same,increase in dead-cell fraction,[3]; 0.03162 µM,0.0508
same,increase in dead-cell fraction,[3]; 0.1 µM,0.0599
same,increase in dead-cell fraction,[3]; 0.3162 µM,0.0693
same,increase in dead-cell fraction,[3]; 1 µM,0.0723
same,increase in dead-cell fraction,[3]; 3.162 µM,0.134
same,increase in dead-cell fraction,[3]; 10 µM,0.192
same,increase in dead-cell fraction,[4]; 0.001 µM,-0.0039
same,increase in dead-cell fraction,[4]; 0.003162 µM,-0.0056
same,increase in dead-cell fraction,[4]; 0.01 µM,-0.004
same,increase in dead-cell fraction,[4]; 0.03162 µM,-0.0021
same,increase in dead-cell fraction,[4]; 0.1 µM,-0.0017
same,increase in dead-cell fraction,[4]; 0.3162 µM,-0.0037
same,increase in dead-cell fraction,[4]; 1 µM,0.0033
same,increase in dead-cell fraction,[4]; 3.162 µM,0.0021
same,increase in dead-cell fraction,[4]; 10 µM,0.128
same,increase in dead-cell fraction,[5]; 0.0001 µM,0.0035
same,increase in dead-cell fraction,[5]; 0.0003162 µM,0.0008
same,increase in dead-cell fraction,[5]; 0.001 µM,0.0008
same,increase in dead-cell fraction,[5]; 0.003162 µM,-0.0007
same,increase in dead-cell fraction,[5]; 0.01 µM,-0.0017
same,increase in dead-cell fraction,[5]; 0.03162 µM,0.0021
same,increase in dead-cell fraction,[5]; 0.1 µM,0.0037
same,increase in dead-cell fraction,[5]; 0.3162 µM,0.019
same,increase in dead-cell fraction,[5]; 1 µM,0.0391
same,increase in dead-cell fraction,[6]; 0.0001 µM,-0.0015
same,increase in dead-cell fraction,[6]; 0.0003162 µM,-0.0015
same,increase in dead-cell fraction,[6]; 0.001 µM,0.0029
same,increase in dead-cell fraction,[6]; 0.003162 µM,0.0026
same,increase in dead-cell fraction,[6]; 0.01 µM,-0.0001
same,increase in dead-cell fraction,[6]; 0.03162 µM,0.437
same,increase in dead-cell fraction,[6]; 0.1 µM,0.584
same,increase in dead-cell fraction,[6]; 0.3162 µM,0.58
same,increase in dead-cell fraction,[6]; 1 µM,0.532
same,increase in dead-cell fraction,[7]; 0.001 µM,-0.009
same,increase in dead-cell fraction,[7]; 0.003162 µM,-0.0216
same,increase in dead-cell fraction,[7]; 0.01 µM,-0.032
same,increase in dead-cell fraction,[7]; 0.03162 µM,-0.0343
same,increase in dead-cell fraction,[7]; 0.1 µM,-0.0329
same,increase in dead-cell fraction,[7]; 0.3162 µM,-0.0295
same,increase in dead-cell fraction,[7]; 1 µM,-0.0018
same,increase in dead-cell fraction,[7]; 3.162 µM,0.239
same,increase in dead-cell fraction,[7]; 10 µM,0.727
same,increase in dead-cell fraction,[8]; 0.0003162 µM,-0.0042
same,increase in dead-cell fraction,[8]; 0.001 µM,-0.0013
same,increase in dead-cell fraction,[8]; 0.003162 µM,-0.0116
same,increase in dead-cell fraction,[8]; 0.01 µM,-0.0114
same,increase in dead-cell fraction,[8]; 0.03162 µM,-0.0305
same,increase in dead-cell fraction,[8]; 0.1 µM,-0.0374
same,increase in dead-cell fraction,[8]; 0.3162 µM,-0.0371
same,increase in dead-cell fraction,[8]; 1 µM,-0.036
same,increase in dead-cell fraction,[8]; 3.162 µM,-0.029
same,increase in dead-cell fraction,[9]; 0.0001 µM,-0.0022
same,increase in dead-cell fraction,[9]; 0.0003162 µM,-0.0006
same,increase in dead-cell fraction,[9]; 0.001 µM,-0.0009
same,increase in dead-cell fraction,[9]; 0.003162 µM,0.0009
same,increase in dead-cell fraction,[9]; 0.01 µM,0.0002
same,increase in dead-cell fraction,[9]; 0.03162 µM,0.0038
same,increase in dead-cell fraction,[9]; 0.1 µM,0.0149
same,increase in dead-cell fraction,[9]; 0.3162 µM,0.046
same,increase in dead-cell fraction,[9]; 1 µM,0.117
same,increase in dead-cell fraction,[10]; 0.0003162 µM,0.0033
same,increase in dead-cell fraction,[10]; 0.001 µM,-0.0017
same,increase in dead-cell fraction,[10]; 0.003162 µM,0.0074
same,increase in dead-cell fraction,[10]; 0.01 µM,0.0041
same,increase in dead-cell fraction,[10]; 0.03162 µM,0.0026
same,increase in dead-cell fraction,[10]; 0.1 µM,0.0003
same,increase in dead-cell fraction,[10]; 0.3162 µM,-0.0046
same,increase in dead-cell fraction,[10]; 1 µM,-0.0094
same,increase in dead-cell fraction,[10]; 3.162 µM,0.0911
same,"GR50, 72 h",[11],3.72 µM
same,"GR50, 72 h",[12],0.00858 µM
same,"GR50, 72 h",[13],0.475 µM
same,"GR50, 72 h",[14],> 10 µM
same,"GR50, 72 h",[15],0.0147 µM
same,"GR50, 72 h",[16],2.89 µM
